Results as given in patent US12240839B2, “Cyclobutyl dihydroquinoline sulfonamide compounds” (AMGEN INC., priority 2020, dated 2025).

System: CYP3A4
Assay: Human CYP3A4 induction assay (mRNA, cryopreserved human hepatocytes)
Settings: 10 uM test compound, 72 hours, percent of control (rifampin positive control)
Procedure: Human CYP3A4 Induction Assay
Cryopreserved human hepatocytes were seeded in 96-well collagen coated plates at 70,000 cells per well in hepatocyte plating media (HPM, final concentrations: 1× Dulbecco's Modified Eagle's Medium, 0.1 μM dexamethasone, 10% fetal bovine serum, 1×ITS, 1×PSG) followed by incubation at 37° C. under 5% CO2 and 90% relative humidity for 2 days to allow hepatocytes to form a confluent layer. On Day 3, hepatocytes were treated with either test compound or rifampin (20 μM, positive control for CYP3A induction) prepared in hepatocyte incubation media ((HIM, final concentrations: 1× William's Medium E, 0.1 μM dexamethasone, 1×ITS, 1×PSG). Treatment was performed for 72 hours with either 2 concentrations (2 μM or 10 μM) or a range of concentrations (0.001 μM to 100 μM) of the test compound to obtain full dose-response curve. Fresh media containing the relevant concentrations of the test compound was replaced every day until the samples were processed. After 72 hours of incubation, samples were processed for mRNA analysis using bDNA technology using manufacturer's instructions (Affymetrix, Fremont, CA). Cell viability was tested at the end of the experiment using MTT assay kit (Roche Diagnostics, Basel, Switzerland). Data was analyzed and presented as percent of control (POC) and Emax and EC50 obtained when appropriate according to guidance from Center for Drug Evaluation and Research (CDER), 2006, Guidance for Industry, Drug Interaction Studies—Study Design, Data Analysis, and Implications for Dosing and Labeling.

Hu CYP3A4 mRNA Induction (10 uM POC) [%] | SMILES
14.71 | COc1cc(C2CC(F)(F)C2)c(F)cc1-n1c(=O)ccc2cc(S(=O)(=O)Nc3ccon3)ccc21 (atropisomer, axis not shown; (P)) [Example 4, (P)-1-(4-(3,3-difluorocyclobutyl)-5-fluoro-2-methoxyphenyl)-N-(isoxazol-3-yl)-2-oxo-1,2-dihydroquinoline-6-sulfonamide]
5.66 | COc1cc([C@H]2C[C@](F)(C(F)(F)F)C2)c(Cl)cc1-n1c(=O)ccc2cc(S(=O)(=O)Nc3ccon3)ccc21 (atropisomer, axis not shown; (P)) [Example 10, cis-(P)-1-(5-chloro-4-(3-fluoro-3-(trifluoromethyl)cyclobutyl)-2-methoxyphenyl)-N-(isoxazol-3-yl)-2-oxo-1,2-dihydroquinoline-6-sulfonamide]
7.29 | COc1cc([C@H]2C[C@@](F)(C(F)(F)F)C2)c(Cl)cc1-n1c(=O)ccc2cc(S(=O)(=O)Nc3ccon3)ccc21 (atropisomer, axis not shown; (P)) [Example 11, trans-(P)-1-(5-chloro-4-(3-fluoro-3-(trifluoromethyl)cyclobutyl)-2-methoxyphenyl)-N-(isoxazol-3-yl)-2-oxo-1,2-dihydroquinoline-6-sulfonamide]
18.3 | COc1cc(C2CCC2)c(F)cc1-n1c(=O)ccc2cc(S(=O)(=O)Nc3ccon3)ccc21 (atropisomer, axis not shown; (P)) [Example 14, (P)-1-(4-cyclobutyl-5-fluoro-2-methoxyphenyl)-N-(isoxazol-3-yl)-2-oxo-1,2-dihydroquinoline-6-sulfonamide]
36 | COc1cc([C@H]2C[C@H](C(F)(F)F)C2)c(F)cc1-n1c(=O)ccc2cc(S(=O)(=O)Nc3ncccn3)ccc21 (atropisomer, axis not shown; (P)) [Example 15, trans-(P)-1-(5-fluoro-2-methoxy-4-(3-(trifluoromethyl)cyclobutyl)phenyl)-2-oxo-N-(pyrimidin-2-yl)-1,2-dihydroquinoline-6-sulfonamide]
130.1 | COc1cc([C@H]2C[C@@H](C(F)(F)F)C2)c(Cl)cc1-n1c(=O)ccc2cc(S(=O)(=O)Nc3ncccn3)ccc21 (atropisomer, axis not shown; (P)) [Example 16, cis-(P)-1-(5-chloro-2-methoxy-4-(3-(trifluoromethyl)cyclobutyl)phenyl)-2-oxo-N-(pyrimidin-2-yl)-1,2-dihydroquinoline-6-sulfonamide]
61.91 | COc1cc([C@H]2C[C@H](C(F)(F)F)C2)c(Cl)cc1-n1c(=O)ccc2cc(S(=O)(=O)Nc3ncccn3)ccc21 (atropisomer, axis not shown; (P)) [Example 17, trans-(P)-1-(5-chloro-2-methoxy-4-(3-(trifluoromethyl)cyclobutyl)phenyl)-2-oxo-N-(pyrimidin-2-yl)-1,2-dihydroquinoline-6-sulfonamide]
20.78 | COc1cc(C2CCC2)c(Cl)cc1-n1c(=O)ccc2cc(S(=O)(=O)Nc3ncccn3)ccc21 (atropisomer, axis not shown; (P)) [Example 18, (P)-1-(5-chloro-4-cyclobutyl-2-methoxyphenyl)-2-oxo-N-(pyrimidin-2-yl)-1,2-dihydroquinoline-6-sulfonamide]
60.73 | COc1cc([C@H]2C[C@H](C(F)(F)F)C2)c(Cl)cc1-n1c(=O)ccc2cc(S(=O)(=O)Nc3cccnn3)ccc21 (atropisomer, axis not shown; (P)) [Example 19, trans-(P)-1-(5-chloro-2-methoxy-4-(3-(trifluoromethyl)cyclobutyl)phenyl)-2-oxo-N-(pyridazin-3-yl)-1,2-dihydroquinoline-6-sulfonamide]
42.22 | COc1cc([C@H]2C[C@H](C(F)(F)F)C2)c(C)cc1-n1c(=O)ccc2cc(S(=O)(=O)Nc3ccon3)ccc21 (atropisomer, axis not shown; (P)) [Example 20, trans-(P)—N-(isoxazol-3-yl)-1-(2-methoxy-5-methyl-4-(3-(trifluoromethyl)cyclobutyl)phenyl)-2-oxo-1,2-dihydroquinoline-6-sulfonamide]
17.07 | COc1cc(C2CCC2)c(Cl)cc1-n1c(=O)ccc2cc(S(=O)(=O)Nc3ccon3)ccc21 (atropisomer, axis not shown; (P)) [Example 21, (P)-1-(5-chloro-4-cyclobutyl-2-methoxyphenyl)-N-(isoxazol-3-yl)-2-oxo-1,2-dihydroquinoline-6-sulfonamide]
24.14 | COc1cc(C2CCC2)c(C)cc1-n1c(=O)ccc2cc(S(=O)(=O)Nc3ccon3)ccc21 (atropisomer, axis not shown; (P)) [Example 22, (P)-1-(4-cyclobutyl-2-methoxy-5-methylphenyl)-N-(isoxazol-3-yl)-2-oxo-1,2-dihydroquinoline-6-sulfonamide]
14.37 | COc1cc(C2CCC2)c(F)cc1-n1c(=O)ccc2cc(S(=O)(=O)Nc3cccnn3)ccc21 (atropisomer, axis not shown; (P)) [Example 23, (P)-1-(4-cyclobutyl-5-fluoro-2-methoxyphenyl)-2-oxo-N-(pyridazin-3-yl)-1,2-dihydroquinoline-6-sulfonamide]
89.26 | COc1cc(C2CCC2)c(F)cc1-n1c(=O)ccc2cc(S(=O)(=O)Nc3ncco3)ccc21 (atropisomer, axis not shown; (P)) [Example 24, (P)-1-(4-cyclobutyl-5-fluoro-2-methoxyphenyl)-N-(oxazol-2-yl)-2-oxo-1,2-dihydroquinoline-6-sulfonamide]
18.57 | COc1cc(C2CCC2)ccc1-n1c(=O)ccc2cc(S(=O)(=O)Nc3ccon3)ccc21 (atropisomer, axis not shown; (P)) [Example 25, (P)-1-(4-cyclobutyl-2-methoxyphenyl)-N-(isoxazol-3-yl)-2-oxo-1,2-dihydroquinoline-6-sulfonamide]
14.58 | COc1cc(C2CCC2)ccc1-n1c(=O)ccc2cc(S(=O)(=O)Nc3ncccn3)ccc21 (atropisomer, axis not shown; (P)) [Example 26, (P)-1-(4-cyclobutyl-2-methoxyphenyl)-2-oxo-N-(pyrimidin-2-yl)-1,2-dihydroquinoline-6-sulfonamide]
48.14 | COc1cc(C2CCC2)c(C)cc1-n1c(=O)ccc2cc(S(=O)(=O)Nc3ncccn3)ccc21 (atropisomer, axis not shown; (P)) [Example 27, (P)-1-(4-Cyclobutyl-2-Methoxy-5-Methylphenyl)-2-Oxo-N-(Pyrimidin-2-Yl)-1,2-Dihydroquinoline-6-Sulfonamide]
60.29 | COc1cc(C2CCC2)c(F)cc1-n1c(=O)ccc2cc(S(=O)(=O)Nc3ncccn3)ccc21 (atropisomer, axis not shown; (P)) [Example 28, (P)-1-(4-cyclobutyl-5-fluoro-2-methoxyphenyl)-2-oxo-N-(pyrimidin-2-yl)-1,2-dihydroquinoline-6-sulfonamide]
34.63 | COc1cc(C2CCC2)ccc1-n1c(=O)ccc2cc(S(=O)(=O)Nc3ncco3)ccc21 (atropisomer, axis not shown; (P)) [Example 29, (P)-1-(4-cyclobutyl-2-methoxyphenyl)-N-(oxazol-2-yl)-2-oxo-1,2-dihydroquinoline-6-sulfonamide]
88 | COc1cc(C2CCC2)c(Cl)cc1-n1c(=O)ccc2cc(S(=O)(=O)Nc3ncco3)ccc21 (atropisomer, axis not shown; (P)) [Example 32, (P)-1-(5-chloro-4-cyclobutyl-2-methoxyphenyl)-N-(oxazol-2-yl)-2-oxo-1,2-dihydroquinoline-6-sulfonamide]
69.54 | COc1cc(C2CCC2)c(C)cc1-n1c(=O)ccc2cc(S(=O)(=O)Nc3ncco3)ccc21 (atropisomer, axis not shown; (P)) [Example 34, (P)-1-(4-cyclobutyl-2-methoxy-5-methylphenyl)-N-(oxazol-2-yl)-2-oxo-1,2-dihydroquinoline-6-sulfonamide]
13.33 | COc1cc([C@H]2C[C@H](C(F)(F)F)C2)ccc1-n1c(=O)ccc2cc(S(=O)(=O)Nc3ccon3)ccc21 (atropisomer, axis not shown; (P)) [Example 35, trans-(P)—N-(isoxazol-3-yl)-1-(2-methoxy-4-(3-(trifluoromethyl)cyclobutyl)phenyl)-2-oxo-1,2-dihydroquinoline-6-sulfonamide]
19.16 | COc1cc([C@H]2C[C@H](C(F)(F)F)C2)ccc1-n1c(=O)ccc2cc(S(=O)(=O)Nc3ncccn3)ccc21 (atropisomer, axis not shown; (P)) [Example 36, trans-(P)-1-(2-methoxy-4-((1R,3R)-3-(trifluoromethyl)cyclobutyl)phenyl)-2-oxo-N-(pyrimidin-2-yl)-1,2-dihydroquinoline-6-sulfonamide]
4.43 | COc1cc([C@H]2C[C@H](C(F)(F)F)C2)ccc1-n1c(=O)ccc2cc(S(=O)(=O)Nc3cccnn3)ccc21 (atropisomer, axis not shown; (P)) [Example 38, trans-(P)-1-(2-methoxy-4-(3-(trifluoromethyl)cyclobutyl)phenyl)-2-oxo-N-(pyridazin-3-yl)-1,2-dihydroquinoline-6-sulfonamide]
21.68 | COc1cc([C@H]2C[C@H](C(F)(F)F)C2)c(F)cc1-n1c(=O)ccc2cc(S(=O)(=O)Nc3cccnn3)ccc21 (atropisomer, axis not shown; (P)) [Example 39, trans-(P)-1-(5-fluoro-2-methoxy-4-(3-(trifluoromethyl)cyclobutyl)phenyl)-2-oxo-N-(pyridazin-3-yl)-1,2-dihydroquinoline-6-sulfonamide]
74.43 | COc1cc([C@H]2C[C@H](C(F)(F)F)C2)c(F)cc1-n1c(=O)ccc2cc(S(=O)(=O)Nc3ccon3)c(F)cc21 (atropisomer, axis not shown; (P)) [Example 40, (P)-7-fluoro-1-(5-fluoro-2-methoxy-4-((1R,3R)-3-(trifluoromethyl)cyclobutyl)phenyl)-N-(isoxazol-3-yl)-2-oxo-1,2-dihydroquinoline-6-sulfonamide]
